The values that follow come from patent US10561720B2, “Pharmaceutical compositions, comprising a combination of select carriers, vitamins, tannins and flavonoids as antigen-specific immuno-modulators” (EpitoGenesis, Inc., priority 2011, dated 2020).

In series [1] the test system is Female BALB/c mice. The experiment in a line: Example 5: IM vaccination with gp120 BaL in oleic acid formulations, serum gp120-specific IgG1 ELISA at 2WP2. The following applies: 40% oleic acid, compared to oleic acid plus EGCG, VA plus EGCG alone or no adjuvant, FIG. 11. It counts as in vivo. The protocol:
Groups of 4 female BALB/C mice were vaccinated intra-muscularly with various vaccine formulations containing 2.5 ug gp120 from the BaL Glade of HIV-1 twice at a 3 weeks interval. Serum gp120-specific IgG1 titers were measured by ELISA at 2 weeks post second vaccination (2WP2). The mice were vaccinated with combinations of retinyl palmitate (RP; 54 IU), epigallo catechin gallate (EGCG; 120 ug) in either 40% oleic acid, each alone or in various combinations.

Series [2] relates to murine air pouch model. Briefly: murine air pouch model of local cytotoxicity, multiplex Luminex of pouch fluid. To be noted: compared to injection of NIDS, FIG. 7. It counts as in vivo, mice. The protocol: A local cytotoxicity test was performed by employing the murine air pouch model.
The subject of series [3] is BALB/c mice. Briefly: cytokine responses in iliac lymph nodes after mucosal (IN/SL) and systemic (IM) vaccinations. The format is in vivo. The following applies: two mucosal (IN/SL) and one systemic (IM) boosting vaccinations vs. three IM vaccinations with Imject Alum; FIG. 4.
Series [4] concerns mice. Briefly: serum TNFα and IL-6 at 6 hours following a single IM injection. The following applies: 6 hours after single IM vaccination; vs. NIDS or no adjuvant; FIG. 8. The format is in vivo.
Protocol: To find further in vivo support of the above air pouch model results, in vivo production of early pro-inflammatory cytokines TNFα and IL-6 were determined in sera of mice at 6 hours following a single IM injection of NIDS vs. poly (I:C) vs. no adjuvant.
The mark [5] stands for this setting: air pouch supernatant 6 hours after injection.

For the molecule `CCCCCCCC/C=C\CCCCCCCC(=O)O` [oleic acid], the “serum IgG1 antigen-specific responses” value in series [1] is “enhanced”.

Turning to poly (I:C), in series [2] (air pouch supernatant 6 hours after injection of seven mouse vaccine dose equivalents), the TNFα entry is “Significantly higher”. In series [2] (setting [5]), the G-CSF result is “Significantly higher”, the IL-6 entry is “Significantly higher”, the IP-10 entry is given as “Significantly higher” and the KC result is on record as “Significantly higher”. Moreover, in series [2] (setting [5]), the MCP-1 result was “Significantly higher”, the MIP1-a entry is listed as “Significantly higher”, the MIP-1b entry is recorded as “Significantly higher” and the MIP-2 result is recorded as “Significantly higher”. Besides, the RANTES result in series [2] (setting [5]) is “Significantly higher”. The “local TH1 and TH2 cytokine responses in iliac lymph nodes” value in series [3] is “enhanced”. In series [4], the “serum IL-6” value is “significantly enhanced” and the “serum TNFα” value is listed as “significantly enhanced”.
